# In patent US7829665B2 (priority 2005, dated 2010):
# pEC50, pIC50: −log10 of the molar value.
# Assays:
# [1] = test system: HCV sub-genomic replicon in GS4.3 cells (HuH-7 hepatoma cells); assay: Quantitation by ELISA of Neomycin phosphotransferase II (NPTII) in the HCV sub-genomic replicon, GS4.3; assay type: cell-based, hepatitis C virus; settings: Hepatitis C virus, Huh-7; GS4.3 cells, 72 h incubation, NPTII ELISA; read-out: Replicon EC50
# In short: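 Replicon-bearing HuH-7 (GS4.3) cells were exposed to compounds for 72 h in G418-free medium, top final concentration 10 μM, 1% DMSO. Lysates went to an NPTII ELISA read at 450 nm. Signal was normalised to DMSO-treated wells and EC50 was derived by four-parameter curve fitting.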
# [2] = molecular target: T1, full-length NS3/NS4A-2 (HCV NS3 protease) (Hepatitis C virus genotype 1a, UniProt P27958); assay: NS3-NS4 protease assay / NS3 inhibition assay (RETS1 substrate, fluorescence kinetic read); assay type: biochemical; settings: recombinant E. coli or Baculovirus full-length NS3 with NS4A-2; read-out: NS3-NS4 IC50
# T1 construct: Recombinant E. coli or Baculovirus full-length NS3 was diluted to 3.33 μM with assay buffer; made in house; host or cells: E. coli or baculovirus (BV) expression system
# T1 sequence (P27958 1027-1657): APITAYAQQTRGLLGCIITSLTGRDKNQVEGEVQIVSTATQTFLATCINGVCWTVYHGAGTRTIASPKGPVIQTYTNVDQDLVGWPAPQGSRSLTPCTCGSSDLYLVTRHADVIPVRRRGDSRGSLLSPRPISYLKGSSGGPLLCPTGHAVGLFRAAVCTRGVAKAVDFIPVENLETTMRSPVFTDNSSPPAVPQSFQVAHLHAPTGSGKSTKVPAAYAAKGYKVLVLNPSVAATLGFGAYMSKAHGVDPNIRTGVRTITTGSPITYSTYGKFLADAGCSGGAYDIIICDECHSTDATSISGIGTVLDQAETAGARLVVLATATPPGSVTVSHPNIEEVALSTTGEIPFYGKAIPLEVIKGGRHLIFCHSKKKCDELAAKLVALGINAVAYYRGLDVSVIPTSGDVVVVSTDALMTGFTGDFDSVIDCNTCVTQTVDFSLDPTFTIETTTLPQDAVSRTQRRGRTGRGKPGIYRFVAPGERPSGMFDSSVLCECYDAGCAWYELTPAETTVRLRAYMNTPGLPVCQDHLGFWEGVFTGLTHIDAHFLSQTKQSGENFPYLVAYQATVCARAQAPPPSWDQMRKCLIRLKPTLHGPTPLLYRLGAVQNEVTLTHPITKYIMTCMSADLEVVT
# In short: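 Ki values come from IC50 fits corrected via Ki=IC50/(1+[S]/Km), with Km 2.03 μM for E. coli and 1.74 μM for baculovirus full-length NS3. Enzyme (2 or 3 nM NS3, respectively, complexed with NS4A-2) sat with compound, top concentration 50 microM, for 10 min at room temperature. Cleavage of RETS1 (8 μM working solution) was then followed by fluorescence (335/495 nm) over 30 min.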
SMILES,pEC50 [1],pIC50 [2]
"CC(C)(C)OC(=O)N[C@H]1CCCC(F)(F)C/C=C\[C@@H]2C[C@@]2(C(=O)O)NC(=O)[C@@H]2C[C@@H](OC(=O)N3Cc4cccc(F)c4C3)CN2C1=O [Compound 1006, (2R,6S,13aS,14aR,16aS,Z)-6-(tert-butoxycarbonylamino)-9,9-difluoro-2-(4-fluoroisoindoline-2-carbonyloxy)-5,16-dioxo-1,2,3,5,6,7,8,9,10,11,13a,14,14a,15,16,16a-hexadecahydrocyclopropa(e)prrolo[1,2-a][1,4]diazacyclopentadecine-14a-carboxylic acid]",> 5.00,> 7.00
O=C(NC1CCCC1)N[C@H]1CCCCC/C=C\[C@@H]2C[C@@]2(C(=O)NS(=O)(=O)C2CC2)NC(=O)C2C[C@@H](OC(=O)N3Cc4cccc(Cl)c4C3)CN2C1=O (stereo partly drawn) [Compound 180],> 7.00,> 7.00
O=C(N[C@H]1CCCCC/C=C\[C@@H]2C[C@@]2(C(=O)O)NC(=O)[C@@H]2C[C@@H](OC(=O)N3Cc4cccc(F)c4C3)CN2C1=O)C1CCC1 [Compound 122],> 5.00,> 7.00
CC(C)(C)OC(=O)N[C@H]1CCOCC/C=C\[C@@H]2C[C@@]2(C(=O)O)NC(=O)[C@@H]2C[C@@H](OC(=O)N3Cc4cccc(F)c4C3)CN2C1=O [Compound 1026],> 5.00,> 7.00
O=C(N[C@H]1CCCCC/C=C\[C@@H]2C[C@@]2(C(=O)NS(=O)(=O)C2CC2)NC(=O)[C@@H]2C[C@@H](OC(=O)N3Cc4cccc(Cl)c4C3)CN2C1=O)OC1CCCC1 [Compound 141],> 7.00,> 7.00
CC(C)(C)NC(=S)N[C@H]1CCCCC/C=C\[C@@H]2C[C@@]2(C(=O)NS(=O)(=O)C2CC2)NC(=O)[C@@H]2C[C@@H](OC(=O)N3Cc4cccc(F)c4C3)CN2C1=O [Compound 239],> 7.00,> 7.00
O=C(N[C@H]1CCCCC/C=C\[C@@H]2C[C@@]2(C(=O)NS(=O)(=O)C2CCCCC2)NC(=O)[C@@H]2C[C@@H](OC(=O)N3CCc4ccccc4C3)CN2C1=O)OC1CCCC1 [Compound 189],> 6.00,> 7.00
CC(C)(C)OC(=O)N[C@H]1CCCCCCC[C@@H]2C[C@@]2(C(=O)NS(=O)(=O)C2CC2)NC(=O)[C@@H]2C[C@@H](OC(=O)N3Cc4cccc(F)c4C3)CN2C1=O [Compound 268],> 7.00,> 7.00
CC(C)(C)OC(=O)N[C@H]1CCC(F)(F)CC/C=C\[C@@H]2C[C@@]2(C(=O)NS(=O)(=O)C2CC2)NC(=O)[C@@H]2C[C@@H](OC(=O)N3Cc4ccccc4C3)CN2C1=O [Compound 1009],> 7.00,> 7.00
O=C1N[C@]2(C(=O)NS(=O)(=O)C3CC3)C[C@H]2/C=C\CCCCC[C@H](NCC2CC2)C(=O)N2C[C@H](OC(=O)N3Cc4cccc(F)c4C3)C[C@@H]12 [Compound 910],> 6.00,> 7.00
CC(C)(C)OC(=O)N[C@H]1CCCCC/C=C\[C@@H]2C[C@@]2(C(=O)NS(=O)(=O)N2CCOCC2)NC(=O)[C@@H]2C[C@@H](OC(=O)N3Cc4cccc(F)c4C3)CN2C1=O [Compound 209],> 7.00,> 7.00
O=C(N[C@H]1CCCCC/C=C\[C@@H]2C[C@@]2(C(=O)NS(=O)(=O)N2CCC2)NC(=O)[C@@H]2C[C@@H](OC(=O)N3Cc4cccc(F)c4C3)CN2C1=O)OC1CCCC1 [Compound 217],> 7.00,> 7.00
CC(C)(C)OC(=O)N[C@H]1CCCCC/C=C\[C@@H]2C[C@@]2(C(=O)O)NC(=O)[C@@H]2C[C@@H](OC(=O)N3Cc4ccc(C(F)(F)F)cc4C3)CN2C1=O [Compound 110],> 5.00,> 6.00
O=C(N[C@H]1CCCCC/C=C\[C@@H]2C[C@@]2(C(=O)NS(=O)(=O)C2CC2)NC(=O)[C@@H]2CCCN2C1=O)C1CC1 [Compound 317],< 5.00,> 6.00
C[C@H](NC(=O)[C@@]12C[C@H]1/C=C\CCCCC[C@H](NC(=O)OC(C)(C)C)C(=O)N1C[C@H](OC(=O)N3Cc4cccc(F)c4C3)C[C@H]1C(=O)N2)c1ccc(F)cn1 [Compound 628],> 6.00,> 6.00
"O=C(N[C@H]1CCCCC/C=C\[C@@H]2C[C@@]2(C(=O)NS(=O)(=O)C2CC2)NC(=O)[C@H]2Cc3cc(Oc4cccc(Cl)c4)ccc3CN2C1=O)OC1CCCC1 [Compound 2005, Cyclopentyl (1aS,9S,17aR,19aR,Z)-15-(3-chlorophenoxy)-19a-(cyclopropylsulfonylcarbamoyl)-10,18-dioxo-1a,4,5,6,7,8,9,10,12,17,17a,18,19,19a-tetradecahydro-1H-11,14-diaza-bicyclo[13.1.0]hexadeca-1(15), 2-dieno[11,12-b]isoquinolin-9-ylcarbamate]",> 6.00,> 7.00
"CC(C)(C)OC(=O)N[C@H]1CCOCCCC[C@@H]2C[C@@]2(C(=O)NS(=O)(=O)C2CC2)NC(=O)[C@@H]2C[C@@H](OC(=O)N3Cc4cccc(F)c4C3)CN2C1=O [Compound 1028, (2R,6S,13aR,14aR,16aS)-6-(tert-butoxycarbonylamino)-14a-(cyclopropylsulfonylcarbamoyl)-5,16-dioxohexadecahydro-1H-cyclopropa(j)pyrrolo[1,2-f][1,6,9]oxadiazacyclopentadecin-2-yl 4-fluoroisoindoline-2-carboxylate]",> 7.00,> 7.00

SMILES,pEC50 [1],pIC50 [2]
CC(C)(O)CC(=O)N[C@H]1CCCCC/C=C\[C@@H]2C[C@@]2(C(=O)NS(=O)(=O)C2CC2)NC(=O)[C@@H]2C[C@@H](OC(=O)N3Cc4cccc(F)c4C3)CN2C1=O [Compound 252],> 5.00,> 7.00
CC(C)(C)OC(=O)N[C@H]1CCCCC/C=C\[C@@H]2C[C@@]2(C(=O)NS(=O)(=O)C2CC2)NC(=O)[C@@H]2C[C@@H](OC(=O)N3Cc4cccc(N5CCOCC5)c4C3)CN2C1=O [Compound 158],> 7.00,> 7.00
CC(C)(O)C(=O)N[C@H]1CCCCC/C=C\[C@@H]2C[C@@]2(C(=O)NS(=O)(=O)C2CC2)NC(=O)[C@@H]2C[C@@H](OC(=O)N3Cc4cccc(F)c4C3)CN2C1=O [Compound 246],> 6.00,> 7.00
CC(C)(C)OC(=O)N[C@H]1CCCCC/C=C\[C@@H]2C[C@@]2(C(=O)NS(=O)(=O)C(C)(C)C)NC(=O)[C@@H]2C[C@@H](OC(=O)N3Cc4ccccc4C3)CN2C1=O [Compound 102],> 6.00,> 7.00
O=C(N[C@H]1CCCCC/C=C\[C@@H]2C[C@@]2(C(=O)O)NC(=O)C2C[C@@H](OC(=O)N3Cc4cccc(F)c4C3)CN2C1=O)c1cnccn1 (stereo partly drawn) [Compound 181],> 5.00,> 6.00
O=C(NC1CCCC1)N[C@H]1CCCCC/C=C\[C@@H]2C[C@@]2(C(=O)NS(=O)(=O)C2CC2)NC(=O)C2C[C@@H](OC(=O)N3Cc4cccc(F)c4C3)CN2C1=O (stereo partly drawn) [Compound 178],> 7.00,> 7.00
O=C(N[C@H]1CCCCC/C=C\[C@@H]2C[C@@]2(C(=O)NS(=O)(=O)NCC2CC2)NC(=O)[C@@H]2C[C@@H](OC(=O)N3Cc4cccc(F)c4C3)CN2C1=O)OC1CCCC1 [Compound 205],> 6.00,> 7.00
CC(C)(C)OC(=O)N[C@H]1CCCCC/C=C\[C@@H]2C[C@@]2(C(=O)NS(=O)(=O)C2CC2)NC(=O)[C@@H]2C[C@@H](OC(=O)N3Cc4ccc(F)cc4C3)CN2C1=O [Compound 111],> 7.00,> 7.00
CN(C)S(=O)(=O)NC(=O)[C@@]12C[C@H]1/C=C\CCCCC[C@H](N)C(=O)N1C[C@H](OC(=O)N3Cc4ccccc4C3)C[C@H]1C(=O)N2 [Compound 202],> 5.00,> 7.00
O=C(N[C@H]1CCCCC/C=C\[C@@H]2C[C@@]2(C(=O)NS(=O)(=O)N2CCCC2)NC(=O)[C@@H]2C[C@@H](OC(=O)N3Cc4cccc(F)c4C3)CN2C1=O)OC1CCCC1 [Compound 216],> 7.00,> 7.00
O=C1N[C@]2(C(=O)NS(=O)(=O)C3CC3)C[C@H]2/C=C\CCCCC[C@H](NCc2ccccc2)C(=O)N2C[C@H](OC(=O)N3Cc4cccc(F)c4C3)C[C@@H]12 [Compound 905],> 7.00,> 7.00
O=C(N[C@H]1CCCCC/C=C\[C@@H]2C[C@@]2(C(=O)NS(=O)(=O)c2cc(Cl)sc2Cl)NC(=O)[C@@H]2C[C@@H](OC(=O)N3Cc4cccc(Cl)c4C3)CN2C1=O)OC1CCCC1 [Compound 174],> 7.00,> 7.00
CC(C)(C)OC(=O)N[C@H]1CCCCC/C=C\[C@@H]2C[C@@]2(C(=O)Nc2ccccc2)NC(=O)[C@@H]2C[C@@H](OC(=O)N3Cc4ccccc4C3)CN2C1=O [Compound 601],> 6.00,> 7.00
CC(C)(C)OC(=O)N[C@H]1CCCCC/C=C\[C@@H]2C[C@@]2(C(=O)O)NC(=O)[C@@H]2C[C@@H](OC(=O)N3Cc4ccc(F)cc4C3)CN2C1=O [Compound 109],> 5.00,> 7.00
CC(C)(C)OC(=O)N[C@H]1CCCCC/C=C\[C@@H]2C[C@@]2(C(=O)NS(=O)(=O)C2CC2)NC(=O)[C@@H]2C[C@@H](OC(=O)N3CCc4c(F)ccc(F)c4C3)CN2C1=O [Compound 258],> 7.00,> 7.00
O=C1N[C@]2(C(=O)NS(=O)(=O)C3CC3)C[C@H]2/C=C\CCCCC[C@H](Nc2c(N3CCCC3)c(=O)c2=O)C(=O)N2C[C@H](OC(=O)N3Cc4cccc(F)c4C3)C[C@@H]12 [Compound 197],> 5.00,> 7.00
